Drawing on a melting point compilation (Tetko et al.; mined from patent text by program, amines drawn as free bases though some values may be those of a salt), this text covers melting point for 89 molecules.

Bounds are passed on as bounds.

Usually melting point stands for the temperature of the solid-liquid transition. For the molecule `COC(=O)C1=C(C)NC(C)=C(C(=O)OCCN2CCN(c3ccccn3)CC2)C1c1cccc([N+](=O)[O-])c1` (centres undefined), the melting point fell in the range of 53 to 56 °C.

`CC(C)(C)OC(=O)NC(C)(C(=O)O)c1nc2ccccc2s1` (centres undefined) displayed a melting point of 148 to 150 °C.

`CCCCn1c2c(c3ccccc3c1=O)C(=O)c1cc3c(cc1-2)OCO3` registered a melting point of 200 to 201 °C.

`O=S1(=O)NC[C@@H](O)c2cc(Cl)sc21` showed a melting point of 126 to 127 °C.

`CCOC(=O)C1=C(C#N)NC(C)=C(C(=O)OCCOCc2ccccc2)C1c1ccccc1[N+](=O)[O-]` (centres undefined) displayed a melting point of 139 to 140 °C.

For the molecule `CSc1nc(-c2ccc(C#N)cc2)cn1-c1ccc(Br)cc1`, the melting point is 188 to 190 °C.

The molecule `O=C(O)C(Cc1ccccc1)Cc1ccc([N+](=O)[O-])cc1` (centres undefined) gave a melting point of 104 to 105 °C.

`CC(C)c1cc(-c2ccc(F)cc2)nc(O)n1` showed a melting point of 215 to 217 °C.

Take `CCOC(=O)c1cn(CC)c2nc(SC)ncc2c1=O`: the melting point came to 148 °C.

Consider `CCOC(=O)C1=C(C)NC(C)=C(C(=O)OCC)C1c1ccccc1O`, for which the melting point is 159 to 161 °C.

`CC(C)(CCCc1cccnc1)NC(=O)Cc1ccccc1[N+](=O)[O-]` returned a melting point of 117 to 118 °C.

For the molecule `COc1cc2nc(N3CCN(C(=O)C4CC=CCC4)CC3)nc(N)c2cc1OC` (centres undefined), the melting point fell in the range of 211 to 213 °C.

Regarding `Cc1cc(-c2nnn(C)n2)cc(C)c1OCCCCc1nccn1C`, the melting point lay in the range of 100 to 102 °C.

Take `CCOc1cc(C)c(CCc2ccc(OC)c(OC)c2)cc1OC`: the melting point came out at 38.4 °C.

`COC(=O)N1CC[C@H](NC(C)=O)C[C@H]1Cc1ccc(Cl)cc1` (relative stereo) showed a melting point of 169 to 170 °C.

As for `CCCOc1cccc(C(NC2CCN(C)CC2)c2nc3ccccc3s2)c1` (centres undefined), the melting point turned out to be 90 °C.

Molecule `CCCCCCN(CCCC(=O)Nc1c(SC)nc(C)nc1N(CC)CC)c1ccc(Br)cc1` showed a melting point of 89.8 to 93 °C.

As for `O=C(c1ccc(-c2ccc(NC(=S)Nc3ccccc3)cc2)o1)N1CCN2CCC1CC2`, the melting point lay within 171 to 175 °C.

Molecule `Cc1ccccc1CC(=NC#N)NC(NC(=O)Cc1ccc2c(c1)OCO2)C(C)(C)C` (centres undefined) had a melting point of 167 to 169 °C.

With `COCN(C(=O)CCl)c1c(OC)cccc1OC`, the melting point lay in the range of 104 to 106 °C.

Turning to `OCC1Cc2c([nH]c3ccccc23)CN1C(=S)S` (centres undefined), the melting point was 225 to 227 °C.

In turn, `COC(=O)Cc1cn(C2CCCCC2)nc1O` displayed a melting point of 135 to 136 °C.

Turning to `O=C1c2ccccc2C(=O)N1Cc1ccc(SC(F)(F)F)cc1`, the melting point was in the range of 130 to 132 °C.

On to `CC1(C)c2ccccc2[C@H]2Nc3ccccc3[C@H]21` (relative stereo), for which the melting point was in the range of 57 to 59 °C.

The molecule `CCn1c2ccccc2c2c3c(nc(C)c21)CC(C)(C)CC3=O` registered a melting point of 174 to 177 °C.

Take `Cc1ccncc1-c1cncc(OC2SCC(O)C(O)C2O)c1` (centres undefined): the melting point stood at 201 °C.

Regarding `COC(=O)c1c(N)ncn1-c1c(C)cccc1C`, the melting point is 154 to 156 °C.

As to `CSc1cc(C)nc(SC)c1NC(=O)CC=CC1=C(c2ccccc2)c2ccccc2OC1`, the melting point lay within 204 to 206 °C.

For `CCCC1CCC2(C)C(=CCC3C4CCC(=O)C4(C)CCC32)C1` (centres undefined), the melting point lay in the range of 103 to 105 °C.

`CCCCc1ccc(C2(C)OC(=C(C#N)C#N)C(C#N)=C2C)cc1` (centres undefined) returned a melting point of 129 to 130 °C.

`Oc1nc2cc(Br)c3ccccc3c2nc1O` showed a melting point above 300 °C.

As for `COC(=O)Cc1ccc(OCCN)c(OC)c1`, the melting point is 77 to 80 °C.

In turn, `O=C(O)COc1ccc(SCc2cc(-c3ccc(Cl)cc3)on2)c2c1CCCO2` returned a melting point of 131 to 133 °C.

On to `CC(C)(C)OC(=O)Nc1cc(Cl)c(C#Cc2ccccc2)cc1[N+](=O)[O-]`, for which the melting point fell in the range of 166 to 167 °C.

Regarding `COc1ccc(C2OC(=O)NC2C)cc1OC` (centres undefined), the melting point fell in the range of 98 to 99 °C.

In turn, `O=C(O)CCC(O)c1ccc(-c2ccc(F)cc2F)cc1` (centres undefined) displayed a melting point of 111 to 112 °C.

In the case of `CCOC(=O)c1cnn(-c2cccc(Cl)n2)c1S(N)(=O)=O`, the melting point lay in the range of 125 to 128 °C.

On to `CC(C)(C)c1cc(N)n(-c2cccc(Oc3ccccc3)c2)n1`, for which the melting point was in the range of 108 to 110 °C.

For the molecule `O=[N+]([O-])C1(F)C=C(OCC2CCCSC2)C(Cl)=CC1` (centres undefined), the melting point lay within 100 to 103 °C.

Molecule `Nc1ccc2nc3n(c2c1)CC(C(=O)OCc1ccccc1)NC3` (centres undefined) yielded a melting point of 115 to 118 °C.

Consider `Cc1c(N)ccc([N+](=O)[O-])c1Cl`, for which the melting point was in the range of 134 to 138 °C.

Molecule `CCCN(CC1CC1)c1nc(C)nc2c1c(C)c(C)n2-c1c(C)cc(C)c2nsnc12` showed a melting point of 136 °C.

Take `Nc1nc2c(nnn2COC(CO)CO)c(=O)[nH]1`: the melting point lay within 233 to 234 °C.

For the molecule `CC(C)(C)OC(=O)N[C@@H]1C(=O)N(OCC(=O)OCc2ccc([N+](=O)[O-])cc2)[C@@H]1COC(N)=O`, the melting point is 189 to 191 °C.

Molecule `Cc1ccc2c(c1)c(=O)c(CO)cn2C` gave a melting point of 171 to 173 °C.

The molecule `O=c1cc(CCCl)c2ccccc2[nH]1` displayed a melting point of 186 to 187 °C.

In the case of `COC(=O)c1ccc(C)c(-n2c(C)cc(OCc3ccccc3CNC(=O)Nc3cc(C(C)(C)C)nn3-c3ccc(Cl)c(O)c3)c(Cl)c2=O)c1`, the melting point was in the range of 193 to 195 °C.

Molecule `COC1(C)CCc2cc(OC(=O)c3ccccc3)c(C)c(C)c2O1` (centres undefined) yielded a melting point of 102 °C.

In the case of `COc1ccc(N2CCN(CCn3c(=O)[nH]c4ccsc4c3=O)CC2)cc1`, the melting point lay in the range of 130 to 131 °C.

The molecule `Nc1sc(-c2ccccn2)c(CN(C2CCCCC2)C2CCCCC2)c1C(=O)c1ccc(Cl)cc1` had a melting point of 192 to 194 °C.

Consider `CCOC(=O)C1=C(COCCO)NC(C)=C(C(=O)OC)C1c1ccccc1Cl` (centres undefined), for which the melting point is 125 to 130 °C.

On to `Cc1oc(-c2ccccc2)nc1COc1ccc(CON=C(CCCCC(=O)O)c2ccccc2)cc1`, for which the melting point was in the range of 101 to 102 °C.

The molecule `Cc1cc(C)c(-c2nc(Cl)nc(Cl)n2)c(C)c1` had a melting point of 85 to 91 °C.

`COc1cc(OC)nc(Oc2cccc(F)c2C(=O)O)n1` yielded a melting point of 133 to 134 °C.

In turn, `CN1C[C@H](CCN2CCC(O)(c3ccc(Cl)cc3)CC2)C=C2c3cccc4[nH]cc(c34)C[C@H]21` registered a melting point of 154 to 157 °C.

`CCCCCOc1ccccc1C1=NNC(=O)CC1`: the melting point fell in the range of 50 to 52 °C.

`COc1cc2c(cc1C(F)(F)F)N(C(=O)Nc1ccc(CN(C)C)cc1)CC2` came in with a melting point of 169 to 170 °C.

Turning to `O=C(O)[C@H]1Cc2ccccc2CN1S(=O)(=O)c1ccc(-c2ccccc2)cc1`, the melting point lay in the range of 195 to 202 °C.

The molecule `COc1ccc(-c2ccc(C(C)=O)cc2[N+](=O)[O-])cc1` had a melting point of 124 to 126 °C.

`CC(=O)C(=CS(=O)(=O)N(C)C)c1cccc([N+](=O)[O-])c1` registered a melting point of 115 to 120 °C.

Regarding `CC(=O)CCCc1c[nH]c2ccccc12`, the melting point fell in the range of 89 to 90 °C.

Molecule `COc1cc2c(cc1OC)CN(CC(O)c1ccc(NC(=O)c3cccc4c(=O)c5cccc(OC)c5[nH]c34)cc1)CC2` (centres undefined) gave a melting point of 160 to 165 °C.

In turn, `CCOCc1nnc2c(C(F)(F)F)c(Cl)ccn12` had a melting point of 104 °C.

For the molecule `O=S(=O)(/C=C/c1ccsc1)CS(=O)(=O)/C=C/c1ccsc1`, the melting point lay in the range of 150 to 152 °C.

As to `Cc1nccc(N2CCN(C(=O)c3ccccc3)CC2)n1`, the melting point came to 147 °C.

As for `Cc1c(CC(=O)O)c2cc(OCc3ccccn3)ccc2n1Cc1ccc(Cl)cc1`, the melting point fell in the range of 231 to 233 °C.

For `CCC(CC)c1ccc(N(Cc2ccc(-c3csc(COc4cncc(C(=O)O)c4)n3)cc2)C(C)C)cc1`, the melting point is 202 °C.

Take `O=C1CCCCCCCCCCCCCCCCC1O` (centres undefined): the melting point was in the range of 31 to 32 °C.

Molecule `Cc1sc(N)c(C(=O)c2cccc3ccccc23)c1C` registered a melting point of 195 to 197 °C.

With `Cc1ccc(C)c(OC(C)(C)C(=O)O)c1`, the melting point was 107 to 109 °C.

For `C=C(C)C(=O)O[C@H]1C[C@@H](C(=O)OC)[C@]2(C)CC[C@H]3C(=O)O[C@H](c4ccoc4)C[C@]3(C)[C@H]2C1=O`, the melting point fell in the range of 196 to 199 °C.

Consider `O=C1N(Cc2ccc(C(F)(F)F)o2)c2cccc(-c3ccoc3)c2C12COc1cc3c(cc12)CCO3` (centres undefined), for which the melting point lay within 167 to 169 °C.

In turn, `CCOC(=O)c1c([N+](=O)[O-])c(C)nn1C` displayed a melting point of 47 to 48 °C.

Take `COc1ccc2[nH]cc(-c3cc4c(-c5c(C)noc5C)ccnc4[nH]3)c2c1`: the melting point fell in the range of 270 to 271 °C.

`COc1ccc(-c2cc(OC3SCC(OC(C)=O)C(OC(C)=O)C3OC(C)=O)ccn2)cc1` (centres undefined): the melting point lay in the range of 113 to 114 °C.

`CC(C)CC(S)C(=O)NC1(C(=O)NC(CC2(c3cccc4ccccc34)C=CC(c3ccccc3)=CC2)C(=O)O)CCCC1` (centres undefined) yielded a melting point of 187 to 189 °C.

The molecule `CCOC(=O)Cc1c(-c2ccccc2)c2cc(C)c(C)cc2oc1=O` yielded a melting point of 127 to 128 °C.

In turn, `CN(C(=O)c1ccccc1N)c1ccccc1` came in with a melting point of 127 °C.

Take `CN1CCN(c2cccc3ccc(C(O)c4ccccc4)cc23)CC1` (centres undefined): the melting point lay within 162 to 163 °C.

As to `Cc1cc(C)cc(COC(=O)C(Cc2c[nH]c3ccccc23)NS(=O)(=O)c2ccccc2)c1` (centres undefined), the melting point was in the range of 114 to 116 °C.

Molecule `CCCCCCCOC(N)=O` registered a melting point of 84 °C.

Turning to `O=C(NC1CCOCC1)c1cccc(-c2cccc3cc(Cc4cc(F)cc(Cl)c4)sc23)c1`, the melting point was 127 to 128 °C.

For the molecule `Cc1ccc(N(c2ccc(-c3ccccc3)cc2)c2ccc(C)c(C)c2)cc1`, the melting point fell in the range of 128 to 130 °C.

`CN(C(=O)COc1nnc(C(F)F)s1)c1ccccc1` came in with a melting point of 67 °C.

With `N#CCC(O)(c1ccc(Cl)cc1)c1ccc(-c2ccc(Br)cc2)cc1` (centres undefined), the melting point was 160 to 161 °C.

In the case of `CCC1CCc2[nH]cc3c(=O)n(-c4ccc(Cl)cc4)nc-3c2C1` (centres undefined), the melting point was in the range of 318 to 320 °C.

Regarding `CCOC(=O)C(O[Si](C)(C)C)C(O[Si](C)(C)C)c1cc2c(cc1[N+](=O)[O-])OCO2` (centres undefined), the melting point was in the range of 73.6 to 79.1 °C.

With `Cc1sc(-c2ccccc2)nc1COc1ccc(CO)cn1`, the melting point was in the range of 70 to 71 °C.

As for `COc1ccc2c(c1)CCN=C2C`, the melting point lay within 206 to 207 °C.
